≈ marks a conversion by molar mass, not a printed value.
How the values were obtained:
Proteus mirabilis BC 17 = assay: In vitro serial dilution test in the microtiter system (MIC), Proteus mirabilis; assay type: cell-based; details: BC17, 18 to 20 h at 37° C., read-out: MIC Prot. mir. BC 17
Method: (§1) The tests were performed using the serial dilution test in the microtiter system. The effect of the test compound on bacteristasis was examined in a liquid medium at the following concentrations: >64, 64 32, 16, 8, 4, 2, 1, 0.5, 0.25, 0.125, 0.06, 0.03 and 0.015 μgm/ml. The nutrient medium consisted of 10 gm of peptone, 8 gm of meat extract oxoid, 3 gm of sodium chloride, and 2 gm of sec. sodium phosphate diluted with distilled water to […] (pH 7.2-7.4). Only in the test against streptococci 1% of glucose was added. The age of the primary cultures was approximately 20 hours. The standardization of the bacteria suspension was effected using a photometer according to the method of Eppendorf (test tube .phi.-mm, filter 546 nm), using for comparison a barium sulfate suspension formed by the addition of 3.0 ml of 1% barium chloride solution to 97 ml of 1% sulfuric acid. After standardization, the test microorganisms were further diluted to a concentration of 1:1500, using a sodium chloride solution.
(§2) 16 mgm of the particular test compound were put into a 10 ml measuring flask, and the flask was subsequently filled to the mark with solvent. The further dilution series was standardized with distilled water or the appropriate solvent.
(§3) The cavities of the microtiter plates were filled with 0.2 ml of nutrient medium. 0.01 ml of the appropriate test compound solution was then added, followed by inoculation with 0.01 ml (1 drop) of the standardized bacteria suspension. The bacteria were incubated at 37° C. for 18 to 20 hours. Control tests using only the solvent were carried out simultaneously.
(§4) The readings were made macroscopically to determine the minimum inhibitory concentration (the lowest still bacteriostatically effective concentration).
(§5) The following test organisms were used:
(§6) Staphylococcus aureus SG 511, Escherichia coli ATCC11 775, Pseudomonas aeruginosa hamburgensis and Pseudomonas aeruginosa BC 19, Serratia marcescens ATCC 13 880, Klebsiella pneumoniae ATCC 10 031 and BC 6, Proteus mirabilis BC 17, Proteus rettgeri BC 7, Enterobacter Cloaceae ATCC 13047 and E. coli R+TEM (β-lactamase carrier).

[1] = test system: Escherichia coli ATCC11 775; assay: In vitro serial dilution test in the microtiter system (MIC), E. coli; assay type: cell-based; details: 18 to 20 h at 37° C., read-out: MIC E. coli ATCC 11775
Method: as §1, §2, §3, §4, §5, §6

[2] = test system: E. coli R+TEM (β-lactamase carrier); assay: In vitro serial dilution test in the microtiter system (MIC), E. coli R+TEM; assay type: cell-based; details: Escherichia coli, read-out: MIC E. coli R + TEM
Method: as §1, §2, §3, §4, §5, §6

E. coli ATCC 11 775 = assay: In vivo activity in mice, experimental E. coli infection; set-up: species or system mice (female, NMRI strain); details: Escherichia coli, ATCC11, sc, 168 h; s.c., once 1 hour after i.p. E. coli infection; 7 days observation; read-out: ED50 (dose at which 50% of the animals survive)
Method: (§7) Several of the compounds of this invention were tested in vivo against experimental infections in mice. E. coli ATCC 11 775 and Pseudomonas aeruginosa BC 19 were used as the pathogenic bacteria. An interaperitoneal infection was induced with 0.2 ml of a bacterial suspension (containing 5% of mucin). This corresponds to approximately 1.4×10^6 E. coli germs or to 1.3×10^6 pseudomonas germs per mouse. Female mice of the NMRI strain were divided up into groups of 10 animals of which 2 groups remained untreated while the remaining groups were subcutaneously administered various doses of the particular cephalosporins according to the invention for the purpose of determining the ED50 (dose at which 50% of the animals survive). In the case of the E. coli infection, the treatment was applied once (1 hour after infection) while the pseudomonas infection was treated 3 times (1, 3 and 5 hours after infection).
(§8) In both cases, the observation period was 7 days. The results of these tests, carried out with typical representatives of the cephalosporins according to the invention, are shown in Table 3 below.

[3] = test system: Enterobacter Cloaceae ATCC 13047; assay: In vitro serial dilution test in the microtiter system (MIC), Enterobacter; assay type: cell-based; details: ATCC13047, 18 to 20 h at 37° C., read-out: MIC Eb. cloaceae
Method: as §1, §2, §3, §4, §5, §6

[4] = test system: Pseudomonas aeruginosa BC 19; assay: In vitro serial dilution test in the microtiter system (MIC), Pseudomonas BC 19; assay type: cell-based; details: BC19, 18 to 20 h at 37° C., read-out: MIC Pseud. aerug. BC 19
Method: as §1, §2, §3, §4, §5, §6

[5] = test system: Klebsiella pneumoniae BC 6; assay: In vitro serial dilution test in the microtiter system (MIC), Klebsiella BC 6; assay type: cell-based; details: BC6, 18 to 20 h at 37° C., read-out: MIC Klebs. pneum. BC 6
Method: as §1, §2, §3, §4, §5, §6

[6] = test system: Serratia marcescens ATCC 13 880; assay: In vitro serial dilution test in the microtiter system (MIC), Serratia; assay type: cell-based; details: 18 to 20 h at 37° C., read-out: MIC Ser. marcesc. ATCC 13880
Method: as §1, §2, §3, §4, §5, §6

Proteus rettgeri BC 7 = assay: In vitro serial dilution test in the microtiter system (MIC), Proteus rettgeri; assay type: cell-based; details: Providencia rettgeri, BC7; 18 to 20 h at 37° C.; read-out: MIC Prot. rettg. BC 7
Method: as §1, §2, §3, §4, §5, §6

[7] = test system: Staphylococcus aureus SG 511; assay: In vitro serial dilution test in the microtiter system (MIC), S. aureus; assay type: cell-based; details: SG511, 18 to 20 h at 37° C.
Method: as §1, §2, §3, §4, §5, §6

[8] = test system: Klebsiella pneumoniae ATCC 10 031; assay: In vitro serial dilution test in the microtiter system (MIC), Klebsiella ATCC 10031; assay type: cell-based; details: 18 to 20 h at 37° C., read-out: MIC Klebs. pneum. ATCC 10031
Method: as §1, §2, §3, §4, §5, §6

[9] = test system: Pseudomonas aeruginosa hamburgensis; assay: In vitro serial dilution test in the microtiter system (MIC), Pseudomonas Hbg.; assay type: cell-based; details: 18 to 20 h at 37° C., read-out: MIC Pseud. aerug. Hbg.
Method: as §1, §2, §3, §4, §5, §6

[10] = test system: Pseudomonas aeruginosa BC 19; assay: In vivo activity in mice, experimental Pseudomonas infection; set-up: species or system mice (female, NMRI strain); details: BC19, sc, 168 h, per dose, s.c., 3 times (1, 3 and 5 hours after i.p. Pseudomonas infection), 7 days observation, read-out: ED50 (dose at which 50% of the animals survive)
Method: as §7, §8

SMILES | MIC (Proteus mirabilis BC 17) | MIC [1] | MIC [2] | ED50 (E. coli ATCC 11 775) | MIC [3] | MIC [4] | MIC [5] | MIC [6] | MIC (Proteus rettgeri BC 7) | MIC [7] | MIC [8] | MIC [9] | ED50 [10]
CO/N=C(\C(=O)N[C@@H]1C(=O)N2C(C(=O)O)=C(COC(N)=O)CS[C@H]12)c1ccco1 [Cefuroxim, reference compound] | 0.5 µg/mL (≈ 1.18 µM) | 8 µg/mL (≈ 18.9 µM) | 4 µg/mL | > 100 mg/kg | 32 µg/mL (≈ 75.4 µM) | > 100 µg/mL | 4 µg/mL (≈ 9.43 µM) | 8 µg/mL (≈ 18.9 µM) | 2 µg/mL (≈ 4.71 µM) | 1 µg/mL (≈ 2.36 µM) | 2 µg/mL (≈ 4.71 µM) | > 100 µg/mL | 
Cc1nnc(SCC2=C(C(=O)O)N3C(=O)[C@@H](NC(=O)Cn4cnnn4)[C@H]3SC2)s1 [Cephazolin, reference compound] | 4 µg/mL (≈ 8.8 µM) | 4 µg/mL (≈ 8.8 µM) | 4 µg/mL |  | > 100 µg/mL | > 100 µg/mL | 2 µg/mL (≈ 4.4 µM) | > 100 µg/mL | > 100 µg/mL | 0.06 µg/mL (≈ 0.132 µM) | 1 µg/mL (≈ 2.2 µM) | > 100 µg/mL | 
NS(=O)(=O)c1ccc(Nc2ncc(NC(=O)NC(C(=O)N[C@@H]3C(=O)N4C(C(=O)O)=C(CSc5nnnn5CC(=O)O)CS[C@H]34)c3ccc(O)cc3)c(O)n2)cc1 (stereo partly drawn) [Compound 5] | 0.12 µg/mL (≈ 0.145 µM) | 0.5 µg/mL (≈ 0.603 µM) | 32 µg/mL |  | 2 µg/mL (≈ 2.41 µM) | 8 µg/mL (≈ 9.65 µM) | 0.5 µg/mL (≈ 0.603 µM) | 0.5 µg/mL (≈ 0.603 µM) | 0.25 µg/mL (≈ 0.302 µM) | 4 µg/mL (≈ 4.83 µM) | 0.5 µg/mL (≈ 0.603 µM) | 8 µg/mL (≈ 9.65 µM) | 
NS(=O)(=O)c1ccc(Nc2ncc(NC(=O)NC(C(=O)N[C@@H]3C(=O)N4C(C(=O)O)=C(CSc5nnnn5CCO)CS[C@H]34)c3ccc(O)cc3)c(O)n2)cc1 (stereo partly drawn) [Compound 7] | 0.06 µg/mL (≈ 0.0736 µM) | 0.03 µg/mL (≈ 0.0368 µM) | 4 µg/mL | ~0.3 mg/kg | 0.25 µg/mL (≈ 0.307 µM) | 4 µg/mL (≈ 4.91 µM) | 0.12 µg/mL (≈ 0.147 µM) | 0.12 µg/mL (≈ 0.147 µM) | 0.25 µg/mL (≈ 0.307 µM) | 1 µg/mL (≈ 1.23 µM) | 0.12 µg/mL (≈ 0.147 µM) | 4 µg/mL (≈ 4.91 µM) | 6.3 mg/kg
Cn1c(SCC2=C(C(=O)O)N3C(=O)[C@@H](NC(=O)C(NC(=O)Nc4cnc(Nc5ccc(S(N)(=O)=O)cc5)nc4O)c4ccc(O)cc4)[C@H]3SC2)nnc(O)c1=O (stereo partly drawn) [Compound 16] | 0.12 µg/mL (≈ 0.145 µM) | 0.12 µg/mL (≈ 0.145 µM) | 4 µg/mL | ~0.8 mg/kg | 0.25 µg/mL (≈ 0.302 µM) | 4 µg/mL (≈ 4.83 µM) | 0.25 µg/mL (≈ 0.302 µM) | 0.25 µg/mL (≈ 0.302 µM) | 0.25 µg/mL (≈ 0.302 µM) | 0.12 µg/mL (≈ 0.145 µM) | 0.12 µg/mL (≈ 0.145 µM) | 8 µg/mL (≈ 9.66 µM) | 10 to 20 mg/kg
C[S+]([O-])CCn1nnnc1SCC1=C(C(=O)O)N2C(=O)[C@@H](NC(=O)C(NC(=O)Nc3cnc(Nc4ccc(S(N)(=O)=O)cc4)nc3O)c3ccc(O)cc3)[C@H]2SC1 (stereo partly drawn) [Compound 21] | 0.12 µg/mL (≈ 0.139 µM) | 0.12 µg/mL (≈ 0.139 µM) | 8 µg/mL |  |  | 8 µg/mL (≈ 9.29 µM) | 0.25 µg/mL (≈ 0.29 µM) | 0.25 µg/mL (≈ 0.29 µM) | 0.5 µg/mL (≈ 0.581 µM) | 1 µg/mL (≈ 1.16 µM) | 0.25 µg/mL (≈ 0.29 µM) | 8 µg/mL (≈ 9.29 µM) | 
CS(=O)(=O)CCn1nnnc1SCC1=C(C(=O)O)N2C(=O)[C@@H](NC(=O)C(NC(=O)Nc3cnc(Nc4ccc(S(N)(=O)=O)cc4)nc3O)c3ccc(O)cc3)[C@H]2SC1 (stereo partly drawn) [Compound 30] | 0.06 µg/mL (≈ 0.0684 µM) | 0.12 µg/mL (≈ 0.137 µM) | 8 µg/mL | ~0.6 mg/kg | 0.5 µg/mL (≈ 0.57 µM) | 4 µg/mL (≈ 4.56 µM) | 0.5 µg/mL (≈ 0.57 µM) | 0.5 µg/mL (≈ 0.57 µM) | 1 µg/mL (≈ 1.14 µM) | 2 µg/mL (≈ 2.28 µM) | 0.5 µg/mL (≈ 0.57 µM) | 8 µg/mL (≈ 9.12 µM) | 10 to 20 mg/kg
CS(=O)(=O)NCCn1nnnc1SCC1=C(C(=O)O)N2C(=O)[C@@H](NC(=O)C(NC(=O)Nc3cnc(Nc4ccc(S(N)(=O)=O)cc4)nc3O)c3ccc(O)cc3)[C@H]2SC1 (stereo partly drawn) [Compound 36] | 0.06 µg/mL (≈ 0.0673 µM) | 0.03 µg/mL (≈ 0.0336 µM) | 8 µg/mL |  | 0.12 µg/mL (≈ 0.135 µM) | 2 µg/mL (≈ 2.24 µM) | 0.12 µg/mL (≈ 0.135 µM) | 0.25 µg/mL (≈ 0.28 µM) | 0.25 µg/mL (≈ 0.28 µM) | 2 µg/mL (≈ 2.24 µM) | 0.12 µg/mL (≈ 0.135 µM) | 4 µg/mL (≈ 4.48 µM) | 
CC(=O)NCCn1nnnc1SCC1=C(C(=O)O)N2C(=O)[C@@H](NC(=O)C(NC(=O)Nc3cnc(Nc4ccc(S(N)(=O)=O)cc4)nc3O)c3ccc(O)cc3)[C@H]2SC1 (stereo partly drawn) [Compound 37] | 0.06 µg/mL (≈ 0.0701 µM) | 0.12 µg/mL (≈ 0.14 µM) | 8 µg/mL |  | 0.12 µg/mL (≈ 0.14 µM) | 4 µg/mL (≈ 4.67 µM) | 0.12 µg/mL (≈ 0.14 µM) | 0.12 µg/mL (≈ 0.14 µM) | 0.25 µg/mL (≈ 0.292 µM) | 2 µg/mL (≈ 2.34 µM) | 0.12 µg/mL (≈ 0.14 µM) | 8 µg/mL (≈ 9.35 µM) | 

— US4362725A, “Cephalosporins” (Dr. Karl Thomae Gesellschaft mit beschrankter Haftung, priority 1980, dated 1982)
